# Read-outs that look alike come from different tables or passages of the source.
# What was measured:
# Type in all cases: cell-based
# [1] = tested on: EL-4 cell adherence (protein kinase C); test: EL-4 adherence assay (PKC-associated, with or without PMA); set-up: key to EL-4 Adherence: Inh: inhibition; conditions: for IC50: Mus musculus, EL4
# Protocol: (§1) Lasonolide A was tested for toxicity against P388 murine leukemia cells and A549 human lung carcinoma cells, and for their ability to perturb signal transduction pathways associated with activation of protein kinase C (PKC) and EL-4 cell adherence.
# (§2) A. Maintenance of cell line. The P388 murine leukemia cells were obtained from Dr. J. Mayo, National Cancer Institute, Bethesda, Md. The A549 cells and EL-4.IL-2 cells (TIB) were obtained from the American Type Culture Collection, Rockville, Md. The P388 cells were maintained in Roswell Park Memorial Institute medium 1640 (RPMI-1640) supplemented with 10% horse serum and cultured in plastic tissue culture flasks and kept in an incubator at 37° C. in humidified air containing 5% CO2. The A549 cells were similarly maintained in RPMI-1640 but supplemented with 10% fetal bovine serum. Antibiotic-free stock cultures of P388 and A549 cells were subcultured to 10^5 cells/mi by dilutions in fresh growth medium at 2 to 5 day intervals. The EL-4 cells were similarly maintained but supplemented with 10% v/v heat-inactivated fetal calf serum, 100 U/ml penicillin, 100 μg/ml streptomycin, 6/ μg/ml L-glutamine, and 5×10^-3 M 2-mercaptoethanol (TCM) (Grand Island Biologicals Co., Grand Island, N.Y.).
# Cells were passaged every 3-4 days. Viability was determined by Trypan blue exclusion and always exceeded 80%. For the adherence assay, cells were utilized within 15 passages of frozen stock cultures. Phorbol-12-myristate-13-acetate (PMA), and 4α-phorbol-12-myristate-13-acetate (4α-PMA) were obtained from LC Services Corporation (Woburn, Mass.). Stock solutions of PMA and 4α-PMA were prepared in DMSO and were stored at -70° C. prior to use.
# To assess the effect of the subject compound on EL-4 cells, EL-4 cells (2.5×10^5 /well) were cultured in 96-well, flat-bottomed microtiter test plates at 37° C. with the sponge metabolites in triplicate concentrations in the presence (Plate #1) or absence (Plate #2) of PMA (16 nM final concentration). […] Controls consisted of cells incubated alone (negative control) and cells incubated with PMA (positive control). An additional control plate (Plate #3), consisting of EL-4.1IL-2 cells and identical dilutions of compounds in the absence of PMA served as a cytotoxicity plate and was not processed for adherence as described below, but used to monitor the potential cytotoxic effect of compounds for EL-4.1IL2 cells. Incubation time was 1 hour at 37° C. Following the incubation period, Plates #1 and #2 were processed as follows: the contents of each well were removed by flicking the plates into a catch tray and placing the plates inverted onto a paper towel in order to drain and blot the remaining draining wells. To each well, a volume of 100 μl of TCM was added at room temperature and the plates placed on a rotating platform shaker (Mini-Orbital Shaker, BELLCO Biotechnology, Vineland, N.J.) at setting 5 for 4 minutes. The plates were then rotated 180° and subjected to an additional 4 minutes of shaking. The plates were removed and their contents again removed as described, blotted, TCM added to each well, and the plates placed on the rotating shaker. This process was repeated for two additional wash cycles.
# Following the removal of well contents, a volume of 200 μl of TCM and 75 of MTT solution (2 mg/ml in TCM) was added to each well of all plates. Plates were incubated at 37° C. for an additional 4 hours. Following incubation, the contents of Plates #1 and #2 were again removed by flicking the plate into the sink and the plates blotted onto paper towels. Plate #3 was centrifuged and likewise blotted. A volume of 200 μl of iPrOH was then added to each well of all plates in order to dissolve the resulting formazan crystals. The plates were read at 570 nm using a plate reader (Microplate Autoreader, Model EL-311, BIO-TEK Instruments, Inc., Winooski, Vt.). The absorbances for each set of triplicate wells were averaged and the standard error determined. […]
# [2] = tested on: tumor cell; test: inhibition of tumor cell growth (general statement); conditions: in words
# [3] = tested on: A549 human lung carcinoma cells; test: antiproliferative effect against A549 human lung carcinoma cells (MTT, 72 hours)
# Protocol: as §1
# A. Maintenance of cell line. The P388 murine leukemia cells were obtained from Dr. J. Mayo, National Cancer Institute, Bethesda, Md. The A549 cells and EL-4.IL-2 cells (TIB) were obtained from the American Type Culture Collection, Rockville, Md. The P388 cells were maintained in Roswell Park Memorial Institute medium 1640 (RPMI-1640) supplemented with 10% horse serum and cultured in plastic tissue culture flasks and kept in an incubator at 37° C. in humidified air containing 5% CO2. The A549 cells were similarly maintained in RPMI-1640 but supplemented with 10% fetal bovine serum. […]
# (§3) To quantitate the effects of Lasonolide A or its analogs on cell proliferation, 75 μl warm growth medium containing 5 mg/ml MTT was added to each well. […] To spectrophotometrically quantitate formation of reduced formazan, plates were centrifuged (900 g, 5 minutes), culture fluids were removed by aspiration, and 200 μl of acidified isopropanol (2 ml concentrated HCl/L isopropanol) added per well. The absorbance of the resulting solutions was measured at 570 nm with a plate reader (MR700 Microplate Reader, Dynatech Laboratories, Chantilly, Va.). […]
# [4] = tested on: P388 murine leukemia cells; test: antiproliferative effect against P388 murine leukemia cells (MTT, 48 hour exposure); conditions: for IC50: Mus musculus, P388
# Protocol: as §1, §2
# B. Procedure. […]
# as §3
structure (smiles),measurement,setting,value
C=C(CCC(C)C)COC(=O)C(O)C/C=C/CC1OC2/C=C\C/C=C/C(C)=C\C3OC(C/C=C/C=C/C(=O)OC(C2)C1(C)CO)CC(O)C3C (stereo not shown) [Lasonolide A],IC50,"[1]; Table 4, Assay # 38, read-out: EL-4 Adherence IC50",0.019 µg/mL
same,IC50,"[1]; unit inferred, read-out: IC50 by EL-4 Adherence",0.019 µg/mL
same,EL-4 Adherence,"[1]; Table 4, 3.125 μg/ml",Inh
same,EL-4 Adherence,"[1]; Table 4, 6.25 μg/ml",Inh
same,EL-4 Adherence,"[1]; Table 4, 12.5 μg/ml",Inh
same,EL-4 Adherence,"[1]; Table 4, 25 μg/ml",Inh
same,Inhibition using the EL-4 Adherence assay,[1]; in words,strong
same,inhibition of tumor cell growth,[2],inhibit tumor cell growth
same,IC50,"[3]; Table 4, MTT, 72 hours, read-out: A549 IC50",0.04 µg/mL
same,IC50,[3]; read-out: IC50 against cultured human lung carcinoma cells (A549),0.04 µg/mL
same,IC50,"[4]; Table 4, MTT, 48 hours, read-out: P388 IC50",0.002 µg/mL
same,IC50,[4]; read-out: IC50 against mouse leukemia cells,< 0.01 µg/mL
same,inhibitory properties against mouse leukemia cells,[4]; in words,strong inhibitory properties
